Each structure is given as a SMILES string. Read-outs that look alike come from different tables or passages of the source.

Assay [1] concerns bleeding from the amputated tail end. The assay is described as follows: hemostatic effect, Motohashi et al. model: time until bleeding from amputated mouse tail tip in water is completely stopped. Format: in vivo. The settings on record: mice, tail tip amputation.
In the next assay the test system is pulmonary hemorrhage. The assay is described as follows: pulmonary hemorrhage in mice under reduced pressure (scoring method; vascular stabilizing effect). Format: in vivo. The settings on record: Mus musculus, reduced pressure of 50 ± 0.5 mm Hg/15 sec.

Consider `CN1C2=CC(=O)C(=NNC(N)=O)C=C2CC1S(=O)(=O)O` (stereo not drawn) [Carbazochrome sodium sulfonate], for which the median effective dose (ED50) was determined as 5.4 mg/kg in assay [1] (ip, read-out: ED50 i.p. (hemostatic effect)); 3.6 mg/kg in assay [1] (iv, read-out: ED50 i.v. (hemostatic effect)); 36 mg/kg in assay [1] (po, read-out: ED50 p.o. (hemostatic effect)); 112 mg/kg with pulmonary hemorrhage (ip, read-out: ED50 i.p. (pulmonary hemorrhage)); 80 mg/kg with pulmonary hemorrhage (iv, read-out: ED50 i.v. (pulmonary hemorrhage)); 400 mg/kg in the assay with pulmonary hemorrhage (po, read-out: ED50 p.o. (pulmonary hemorrhage)).

These data come from US4112218A, “Method of preparing sterol glycosides from plants” (Nippon Shinyaku Co., Ltd., priority 1976, dated 1978).
